Laboratory results from paper PMC10049354, “Anti-Inflammatory Effects and Photo- and Neuro-Protective Properties of BIO203, a New Amide Conjugate of Norbixin, in Development for the Treatment of Age-Related Macular Degeneration (AMD)” (International Journal of Molecular Sciences, 2023).

Legend:
[1] = tested on: primary porcine RPE cells; assay: RPE phototoxicity: photoprotection of RPE cells exposed to A2E and blue light; format: cell-based, pig; conditions: A2E 30 μM + blue-light illumination
Protocol: RPE cells were obtained from pig eyes, as previously described. RPE cells were seeded on a 96-well plate at a density of 1.5 × 10^5 cells/cm^2 in DMEM 2% FCS. BIO201, BIO203, or its pure enantiomers were added in increasing concentrations to the culture medium 48 h before illumination. A2E was added to the medium at a final concentration of 30 μM, and 19 h later, blue-light illumination was performed for 50 min using a 96 blue-led device (Durand, St Clair de la Tour, France) emitting at 470 nm (1440 mcd, 8.6 mA). Just before illumination, the culture medium was replaced by a modified DMEM without any photosensitizer and with 2% FCS. Twenty-four hours after blue-light irradiation, all cell nuclei were stained with Hoechst 33342, and nuclei of dead cells with ethidium homodimer 2, fixed with paraformaldehyde (4% in PBS, 10 min) and 9 pictures per well were captured using a fluorescence microscope (Nikon TiE) equipped with a CoolSNAP HQ2 camera and driven by Metamorph Premier On-Line program. Quantification of live cells was performed using Metamorph Premier Off-Line and a homemade program by subtraction of dead cells from all cells. For cytokines mRNA analysis, RPE cells were seeded in 24-well plates and left untreated or treated with A2E or BIO203 alone or A2E plus BIO203. After 48 h, cells were lysed using the lysis buffer from the NucleoSpin® RNA kit, and the samples were stored at −80 °C.

[2] = tested on: albino rats exposed to blue-light-induced photoreceptor degeneration; assay: Blue-light damage (BLD) study in albino rats: ERG; format: in vivo, rat; conditions: for effect on visual function (ERG A-wave and B-wave): four IP administrations; for efficacy dose in the rat model of BLD: IP
Protocol: The ERG in rats was performed using the electrophysiological system RETI-animal® from Roland Consult. ERG was recorded on both eyes from overnight dark-adapted animals. Rats were anesthetized by an intramuscular injection of a mix of Rompun® (xylazine)/Imalgene® (ketamine) before ERG measurement. Ten to fifteen minutes before measurement, one drop of Mydriaticum® (0.5% tropicamide) was instilled for pupillary dilatation. The A-wave and B-wave implicit times (ms) and amplitudes (µV) were measured for each ERG. The B-wave amplitude (value and %) was given as informative data. ERG parameters: Ganzfeld Q450C, Color: white maximum, Maximum intensity: 3 cd/m^2 (0 dB); Duration 0.24 ms; number of flashes: 1, Filter: 50 Hz, Impedance threshold: 50 kΩ. For scotopic ERGs, the A-wave amplitudes were measured from the baseline to the peak of the negative potential, whereas B-wave amplitudes were measured from the trough of the A-wave to the peak of the positive potential. The recordings obtained from these analyses were tabulated and normalized (%) for each eye. Group means, standard deviation, and median values were calculated, considering each eye from one animal as a separate value. ERG recordings in mice were performed as previously described.
Sixty-four animals were selected based on good health and on scotopic electroretinogram performed before induction when the A-wave amplitude of both eyes was in the range of the global mean (all animals) of A-wave amplitude ± 1.96 SD. Animals were then randomized into the study groups using a macro function in Excel® software based on the A-wave amplitude of both eyes (mean value). On Day 0, BIO203, negative controls, and comparator (N-tert-Butyl-a-phenylnitrone (PBN)) were intraperitoneally injected using a 25 G needle in rats that have been dark-adapted for 36 h. Individually housed rats were then exposed for 6 h (±5 min) to a continuous blue, fluorescent light (400–540 nm) in clear plastic cages. After exposure and administration, the rats were placed in a dark room for 24 h (±1 h) and then were returned to rearing cyclic light conditions.

VEGF = tested on: VEGF; design: method as in PMID 34544906; conditions: norbixin at 20 mM (so in the source); cited from earlier work
Abca4−/− Rdh8−/− mice = assay: Photoreceptor nuclear layer thickness after 6 months of oral complementation in Abca4−/− Rdh8−/− mice; format: in vivo, mouse; conditions: HD pellets, 17-month-old mice
Protocol: At the end of the measurement period on Day 7, rats were euthanized by an intraperitoneal injection of pentobarbital. Immediately after euthanasia, both eyeballs were sampled, fixed in Davidson’s solution, and processed for histology. Sections (5 to 7 µm thick) were performed along the vertical meridian and stained with Haematoxylin/Eosin stain. The vertical meridian included the optic nerve. […] The thickness of the outer nuclear layer was measured on each point. […] Histology and photoreceptor counting in mice were performed as previously described.
A custom rodent diet was formulated and irradiated (25 kGy) by Envigo RMS SARL (Gannat, France). Low dose (LD)-BIO203 (50 μg/g) and high dose (HD)-BIO203 (500 μg/g) were incorporated into Teklad Custom Research Diet 2016© pellets. […] The concentration of BIO203 in the customized pellets at the end of each batch was determined by HPLC MS/MS. […] We calculated that in the LD group, male mice weighing 31.63 g after 2 months of complementation consumed 4.16 g of pellets, and in the HD group, male mice weighing 34.11 g after 2 months of complementation consumed 4.11 g of pellets every day, which correspond to a daily dose of 6.04 ± 0.46 mg/kg for the LD-BIO203 pellets and 55.91 ± 2.93 mg/kg for the HD-BIO203 pellets. […]

Row | Structure (SMILES) | survival of RPE cells ([1]; 20 μM compound) | concentration of maximum efficacy / highest protection [1] [µM] | effect on visual function (ERG A-wave and B-wave) ([2]; 50 mg/kg, positive controls) | efficacy dose in the rat model of BLD [2] [mg/kg] | effect on VEGF mRNA expression (VEGF) | concentration from which protective effect was observed [1] [µM] | effect on visual function (ERG A-wave and B-wave) ([2]; 5 mg/kg, ERG 7 days after blue light) | effect on visual function (ERG A-wave and B-wave) ([2]; 10 mg/kg, ERG 7 days after blue light) | effect on visual function (ERG A-wave and B-wave) ([2]; 25 mg/kg, ERG 7 days after blue light, p < 0.0001) | thickness of the photoreceptor nuclear layer compared with LD or control pellets (Abca4−/− Rdh8−/− mice)
1 | CC(=C/C=C/C(C)=C/C=C/C=C(C)/C=C/C=C(C)/C=C/C(=O)O)/C=C/C(=O)O [norbixin, 9′-cis-norbixin] | more than 80% | 20 | protected the visual functions | 50 | significantly reduced | – | – | – | – | –
2 | COC1CCCN(C(=O)/C=C/C(C)=C/C=C/C(C)=C/C=C/C=C(C)/C=C/C=C(C)\C=C\C(=O)O)C1 (stereo not drawn) [BIO203] | – | 15 | – | 25 | – | ≥ 10 | no significant effect | no significant effect | protective effect | No difference
